The supplement of paper PMC10307832

Legend:
Experiment in all cases: relative viability (nuclei count vs DMSO), 5 days (fraction); higher = more cells survive
Adavosertib + Alpelisib = compound: C=CCn1c(=O)c2cnc(Nc3ccc(N4CCN(C)CC4)cc3)nc2n1-c1cccc(C(C)(C)O)n1 [Adavosertib] + Cc1nc(NC(=O)N2CCC[C@H]2C(N)=O)sc1-c1ccnc(C(C)(C)C(F)(F)F)c1 [Alpelisib] (partner 2 µM)
How it was run: (§1)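 Relative viability divides the nuclei count in treated wells by that in vehicle wells. Lung cancer cell lines were seeded in 1536-well plates, dosed by pin tool the next day, and fixed and stained after 5 days in one step with final 0.05% Triton X-100, 1% formaldehyde and 1 ug/ml Hoechst. Dosing was a single drug or a fixed anchor-drug dose plus five library-drug doses (not always all listed) in √10 steps, and values are medians of duplicate plates imaged at 4×.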

Adavosertib + Decitabine = compound: C=CCn1c(=O)c2cnc(Nc3ccc(N4CCN(C)CC4)cc3)nc2n1-c1cccc(C(C)(C)O)n1 [Adavosertib] + Nc1ncn([C@H]2C[C@H](O)[C@@H](CO)O2)c(=O)n1 [Decitabine] (partner 2 µM)
How it was run: as §1

Nelarabine + Lapatinib = compound: COc1nc(N)nc2c1ncn2[C@@H]1O[C@H](CO)[C@@H](O)[C@@H]1O [Nelarabine] + CS(=O)(=O)CCNCc1ccc(-c2ccc3ncnc(Nc4ccc(OCc5cccc(F)c5)c(Cl)c4)c3c2)o1 [Lapatinib] (partner 2 µM)
How it was run: as §1

Nelarabine + Alpelisib = compound: COc1nc(N)nc2c1ncn2[C@@H]1O[C@H](CO)[C@@H](O)[C@@H]1O [Nelarabine] + Cc1nc(NC(=O)N2CCC[C@H]2C(N)=O)sc1-c1ccnc(C(C)(C)C(F)(F)F)c1 [Alpelisib] (partner 2 µM)
How it was run: as §1

| Cell Line | relative viability (Adavosertib + Alpelisib; first compound 0.01 µM) | relative viability (Adavosertib + Alpelisib; first compound 0.03162 µM) | relative viability (Adavosertib + Alpelisib; first compound 0.1 µM) | relative viability (Adavosertib + Alpelisib; first compound 0.3162 µM) | relative viability (Adavosertib + Decitabine; first compound 0.01 µM) | relative viability (Adavosertib + Decitabine; first compound 0.03162 µM) | relative viability (Adavosertib + Decitabine; first compound 0.1 µM) | relative viability (Adavosertib + Decitabine; first compound 0.3162 µM) | relative viability (Nelarabine + Lapatinib; first compound 0.01 µM) | relative viability (Nelarabine + Lapatinib; first compound 0.03162 µM) | relative viability (Nelarabine + Lapatinib; first compound 0.1 µM) | relative viability (Nelarabine + Lapatinib; first compound 0.3162 µM) | relative viability (Nelarabine + Lapatinib; first compound 1 µM) | relative viability (Nelarabine + Alpelisib; first compound 0.01 µM) | relative viability (Nelarabine + Alpelisib; first compound 0.03162 µM) | relative viability (Nelarabine + Alpelisib; first compound 0.1 µM) | relative viability (Nelarabine + Alpelisib; first compound 0.3162 µM) | relative viability (Nelarabine + Alpelisib; first compound 1 µM) |
| --- | --- | --- | --- | --- | --- | --- | --- | --- | --- | --- | --- | --- | --- | --- | --- | --- | --- | --- |
| NCI-H1944 | 0.822 | 0.774 | 0.645 | 0.666 | 0.415 | 0.439 | 0.448 | 0.369 | 0.895 | 0.782 | 0.841 | 0.799 | 0.845 | 0.817 | 0.78 | 0.828 | 0.814 | 0.79 |
| NCI-H2170 | 0.849 | 0.804 | 0.678 | 0.705 | 0.426 | 0.452 | 0.5 | 0.429 | 0.284 | 0.232 | 0.262 | 0.293 | 0.28 | 0.944 | 0.748 | 0.81 | 0.882 | 0.937 |
| COR-L 105 | 1.05 | 1.12 | 0.972 | 0.798 | 0.691 | 0.6 | 0.618 | 0.651 | 0.362 | 0.306 | 0.374 | 0.285 | 0.368 | 1.15 | 1.11 | 1.03 | 1.3 | 0.985 |
| BEN | 1.24 | 1.09 | 1.04 | 1.18 | 0.684 | 0.69 | 0.768 | 0.783 | 0.905 | 0.69 | 0.941 | 0.684 | 0.778 | 1.53 | 0.95 | 1.1 | 1.06 | 1.08 |
| HARA | 0.746 | 0.858 | 0.814 | 0.63 | 0.486 | 0.554 | 0.473 | 0.423 | 0.971 | 0.666 | 0.719 | 0.808 | 0.767 | 0.925 | 0.737 | 0.768 | 1.09 | 0.806 |
| NCI-H1437 | 1.01 | 1.02 | 0.897 | 0.977 | 0.57 | 0.633 | 0.636 | 0.618 | 1.06 | 0.83 | 0.815 | 0.839 | 0.79 | 1.17 | 0.918 | 0.945 | 1.13 | 1.03 |
| HCC-44 | 0.881 | 0.864 | 0.813 | 0.958 | 0.935 | 0.935 | 0.975 | 1 | 1.08 | 1.07 | 1.14 | 1.03 | 1.02 | 0.888 | 0.876 | 0.74 | 0.871 | 0.831 |
| COR-L23 | 0.778 | 0.687 | 0.729 | 0.243 | 0.45 | 0.523 | 0.45 | 0.277 | 1.39 | 1.17 | 1.12 | 1.02 | 0.982 | 0.969 | 0.768 | 0.743 | 0.869 | 0.747 |
| 201T | 0.986 | 1.03 | 0.94 | 0.962 | 0.851 | 0.877 | 0.898 | 0.971 | 1.05 | 1.02 | 0.999 | 1.09 | 1.1 | 1.06 | 1.02 | 0.968 | 1.03 | 1 |
